Reference: ChEMBL document CHEMBL5331076, “Streptogramin A derivatives as mitochondrial translation inhibitors to suppress glioblastoma stem cell growth” (Eur J Med Chem, 2023)
Activity calls are given as the source filed them. The calls are words filed in the database; no cut-off is given here.

Legend:
COMI [1] = assay: Inhibition of mitochondrial translation in human COMI cells assessed as increase in COX4 expression level incubated for 48 hrs by immunoblotting analysis; format: functional, cell-based
COMI [2] = assay: Inhibition of mitochondrial translation in human COMI cells assessed as decrease in COX2 expression level incubated for 48 hrs by immunoblotting analysis; format: functional, cell-based
COMI [3] = assay: Growth inhibition of human COMI cells incubated for 48 hrs by Hoechst 33342/PI staining based analysis; format: functional
COMI [4] = assay: Inhibition of mitochondrial translation in human COMI cells assessed as decrease in COX1 expression level incubated for 48 hrs by immunoblotting analysis; format: functional, cell-based
COMI [5] = assay: Growth inhibition of human COMI cells incubated for 48 hrs in the presence of quinupristin by Hoechst 33342/PI staining based analysis; format: functional
COMI [6] = assay: Inhibition of mitochondrial translation in human COMI cells assessed as decrease in ND3 expression level incubated for 48 hrs by immunoblotting analysis; format: functional, cell-based
COMI [7] = assay: Inhibition of mitochondrial translation in human COMI cells assessed as decrease in COX2 expression level at 0.5 to 5 uM incubated for 48 hrs by immunoblotting analysis; format: functional, cell-based; details: dose 0.5-5 µM
COMI [8] = assay: Inhibition of mitochondrial translation in human COMI cells assessed as increase in COX4 expression level at 0.5 to 5 uM incubated for 48 hrs by immunoblotting analysis; format: functional, cell-based; details: dose 0.5-5 µM
COMI [9] = assay: Inhibition of mitochondrial translation in human COMI cells assessed as decrease in ND3 expression level at 0.5 to 5 uM incubated for 48 hrs by immunoblotting analysis; format: functional, cell-based; details: dose 0.5-5 µM
COMI [10] = assay: Inhibition of mitochondrial translation in human COMI cells assessed as decrease in COX1 expression level at 0.5 to 5 uM incubated for 48 hrs by immunoblotting analysis; format: functional, cell-based; details: dose 0.5-5 µM
COMI [11] = assay: Inhibition of mitochondrial translation in human COMI cells assessed as decrease in ND3 expression level at >25 uM incubated for 48 hrs by immunoblotting analysis; format: functional, cell-based
COMI [12] = assay: Inhibition of mitochondrial translation in human COMI cells assessed as increase in COX4 expression level at >25 uM incubated for 48 hrs by immunoblotting analysis; format: functional, cell-based
COMI [13] = assay: Inhibition of mitochondrial translation in human COMI cells assessed as decrease in COX1 expression level at >25 uM incubated for 48 hrs by immunoblotting analysis; format: functional, cell-based
COMI [14] = assay: Inhibition of mitochondrial translation in human COMI cells assessed as decrease in COX2 expression level at >25 uM incubated for 48 hrs by immunoblotting analysis; format: functional, cell-based

CC1=CC2CNC(=O)/C=C/[C@@H](C)[C@@H](C(C)C)OC(=O)C3=CCCN3C(=O)c3coc(n3)CC(=O)C[C@H](O)C1C1C(=O)NC(=O)C21 (some centres not stated)
inhibition (COMI [1]): inactive | inhibition (COMI [2]): inactive | GI50 (COMI [3]): > 100 µM | inhibition (COMI [4]): inactive | GI50 (COMI [5]): 16.4 µM | inhibition (COMI [6]): inactive

CN[C@H]1Cc2nc(co2)C(=O)N2CCC=C2C(=O)O[C@H](C(C)C)[C@H](C)/C=C/C(=O)NC/C=C/C(C)=C/[C@@H](O)C1
inhibition (COMI [7]): inactive | inhibition (COMI [8]): inactive | inhibition (COMI [9]): inactive | GI50 (COMI [3]): 19.4 µM | GI50 (COMI [5]): 6.57 µM | inhibition (COMI [10]): inactive

CC1=C\[C@@H](O)C[C@H](F)Cc2nc(co2)C(=O)N2CCC=C2C(=O)O[C@H](C(C)C)[C@H](C)/C=C/C(=O)NC\C=C\1
inhibition (COMI [1]): Active | inhibition (COMI [2]): Active | GI50 (COMI [3]): 36.1 µM | inhibition (COMI [4]): Active | GI50 (COMI [5]): 12.3 µM | inhibition (COMI [6]): Active

CCN(CC)CCS(=O)(=O)[C@@H]1CCN2C(=O)c3coc(n3)C[C@H](NC)C[C@H](O)/C=C(C)/C=C/CNC(=O)/C=C/[C@@H](C)[C@@H](C(C)C)OC(=O)[C@@H]12
inhibition (COMI [7]): inactive | inhibition (COMI [8]): inactive | inhibition (COMI [9]): inactive | GI50 (COMI [3]): 14.2 µM | GI50 (COMI [5]): 4.85 µM | inhibition (COMI [10]): inactive

CC1=C\[C@@H](O)C[C@H](O)Cc2nc(co2)C(=O)N2CCC=C2C(=O)O[C@H](C(C)C)[C@H](C)/C=C/C(=O)NC\C=C\1
inhibition (COMI [1]): Active | inhibition (COMI [2]): Active | GI50 (COMI [3]): 52.5 µM | inhibition (COMI [4]): Active | GI50 (COMI [5]): 8.74 µM | inhibition (COMI [6]): Active

CCN(CC)CCS[C@@H]1CCN2C(=O)c3coc(n3)CC(=O)C[C@H](O)/C=C(C)/C=C/CNC(=O)/C=C/[C@@H](C)[C@@H](C(C)C)OC(=O)[C@@H]12
GI50 (COMI [3]): 7.02 µM | GI50 (COMI [5]): 8 µM

CC1=C\[C@@H](O)C[C@@H](F)Cc2nc(co2)C(=O)N2CCC[C@@H]2C(=O)O[C@H](C(C)C)[C@H](C)/C=C/C(=O)NC\C=C\1
inhibition (COMI [7]): Active | inhibition (COMI [8]): Active | inhibition (COMI [9]): Active | GI50 (COMI [3]): 7.37 µM | GI50 (COMI [5]): 5.83 µM | inhibition (COMI [10]): Active

CC1=CC2CNC(=O)/C=C/[C@@H](C)[C@@H](C(C)C)OC(=O)C3=CCCN3C(=O)c3coc(n3)CC(=O)C[C@H](O)C1C1C(=O)OC(=O)C21 (some centres not stated)
inhibition (COMI [1]): inactive | inhibition (COMI [2]): inactive | GI50 (COMI [3]): > 100 µM | inhibition (COMI [4]): inactive | GI50 (COMI [5]): 19.6 µM | inhibition (COMI [6]): inactive

CCN(CC)CCS(=O)(=O)[C@@H]1CCN2C(=O)c3coc(n3)CC(=O)C[C@H](O)C3C(C)=CC(CNC(=O)/C=C/[C@@H](C)[C@@H](C(C)C)OC(=O)[C@@H]12)C1C(=O)NC(=O)C13 (some centres not stated)
inhibition (COMI [1]): inactive | inhibition (COMI [2]): inactive | GI50 (COMI [3]): > 100 µM | inhibition (COMI [4]): inactive | GI50 (COMI [5]): 14.5 µM | inhibition (COMI [6]): inactive

CC1=C\[C@@H](O)C[C@@H](F)Cc2nc(co2)C(=O)N2CCC=C2C(=O)O[C@H](C(C)C)[C@H](C)/C=C/C(=O)NC\C=C\1
inhibition (COMI [7]): Active | inhibition (COMI [8]): Active | inhibition (COMI [9]): Active | GI50 (COMI [3]): 4.82 µM | GI50 (COMI [5]): 5.42 µM | inhibition (COMI [10]): Active

CCN(CC)CCS(=O)(=O)[C@@H]1CCN2C(=O)c3coc(n3)C[C@H](F)C[C@H](O)/C=C(C)/C=C/CNC(=O)/C=C/[C@@H](C)[C@@H](C(C)C)OC(=O)[C@@H]12
inhibition (COMI [7]): Active | inhibition (COMI [8]): Active | inhibition (COMI [9]): Active | GI50 (COMI [3]): 6.73 µM | GI50 (COMI [5]): 5.71 µM | inhibition (COMI [10]): Active

CCN(CC)CCS(=O)(=O)[C@@H]1CCN2C(=O)c3coc(n3)C[C@@H](NC)C[C@H](O)/C=C(C)/C=C/CNC(=O)/C=C/[C@@H](C)[C@@H](C(C)C)OC(=O)[C@@H]12
inhibition (COMI [7]): inactive | inhibition (COMI [8]): inactive | inhibition (COMI [9]): inactive | GI50 (COMI [3]): 1.56 µM | GI50 (COMI [5]): 1.32 µM | inhibition (COMI [10]): inactive

CC1=C\[C@@H](O)C[C@@H](O)Cc2nc(co2)C(=O)N2CCC=C2C(=O)O[C@H](C(C)C)[C@H](C)/C=C/C(=O)NC\C=C\1
inhibition (COMI [1]): Active | inhibition (COMI [2]): Active | GI50 (COMI [3]): 21.7 µM | inhibition (COMI [4]): Active | GI50 (COMI [5]): 5.28 µM | inhibition (COMI [6]): Active

CCN(CC)CCS(=O)(=O)[C@@H]1CCN2C(=O)c3coc(n3)C[C@@H](O)C[C@H](O)/C=C(C)/C=C/CNC(=O)/C=C/[C@@H](C)[C@@H](C(C)C)OC(=O)[C@@H]12
inhibition (COMI [1]): Active | inhibition (COMI [2]): Active | GI50 (COMI [3]): 18.8 µM | inhibition (COMI [4]): Active | GI50 (COMI [5]): 5.17 µM | inhibition (COMI [6]): Active

CCN(CC)CCNC1CCN2C(=O)c3coc(n3)C[C@H](O)C[C@H](O)/C=C(C)/C=C/CNC(=O)/C=C/[C@@H](C)[C@@H](C(C)C)OC(=O)C12 (some centres not stated)
inhibition (COMI [11]): Active | inhibition (COMI [12]): Active | inhibition (COMI [13]): Active | GI50 (COMI [3]): > 100 µM | inhibition (COMI [14]): Active | GI50 (COMI [5]): 16.9 µM

CN[C@@H]1Cc2nc(co2)C(=O)N2CCC=C2C(=O)O[C@H](C(C)C)[C@H](C)/C=C/C(=O)NC/C=C/C(C)=C/[C@@H](O)C1
inhibition (COMI [7]): inactive | inhibition (COMI [8]): inactive | inhibition (COMI [9]): inactive | GI50 (COMI [3]): 1.16 µM | GI50 (COMI [5]): 1.5 µM | inhibition (COMI [10]): inactive

CCN(CC)CCS(=O)(=O)[C@@H]1CCN2C(=O)c3coc(n3)C[C@H](O)C[C@H](O)/C=C(C)/C=C/CNC(=O)/C=C/[C@@H](C)[C@@H](C(C)C)OC(=O)[C@@H]12
inhibition (COMI [1]): Active | inhibition (COMI [2]): Active | GI50 (COMI [3]): 37.5 µM | inhibition (COMI [4]): Active | GI50 (COMI [5]): 7.05 µM | inhibition (COMI [6]): Active

CC1=C\C=C\C(=O)Cc2nc(co2)C(=O)N2CCC=C2C(=O)O[C@H](C(C)C)[C@H](C)/C=C/C(=O)NC\C=C\1
GI50 (COMI [3]): 20.5 µM | GI50 (COMI [5]): 15.6 µM

CCN(CC)CCS(=O)(=O)[C@@H]1CCN2C(=O)c3coc(n3)CC(=O)/C=C/C=C(C)/C=C/CNC(=O)/C=C/[C@@H](C)[C@@H](C(C)C)OC(=O)[C@@H]12
GI50 (COMI [3]): 10.9 µM | GI50 (COMI [5]): 9.9 µM

CCN(CC)CCOC1CCN2C(=O)c3coc(n3)C[C@H](O)C[C@H](O)/C=C(C)/C=C/CNC(=O)/C=C/[C@@H](C)[C@@H](C(C)C)OC(=O)C12 (some centres not stated)
inhibition (COMI [11]): Active | inhibition (COMI [12]): Active | inhibition (COMI [13]): Active | GI50 (COMI [3]): 85.3 µM | inhibition (COMI [14]): Active | GI50 (COMI [5]): 14 µM

CC1=C\[C@@H](O)CC(=O)Cc2nc(co2)C(=O)N2CCC=C2C(=O)O[C@H](C(C)C)[C@H](C)/C=C/C(=O)NC\C=C\1 [VIRGINIAMYCIN FACTOR M1]
GI50 (COMI [3]): 17.1 µM | GI50 (COMI [5]): 7.25 µM

CCN(CC)CCS(=O)(=O)[C@@H]1CCN2C(=O)c3coc(n3)CC(=O)C[C@H](O)C3C(C)=CC(CNC(=O)/C=C/[C@@H](C)[C@@H](C(C)C)OC(=O)[C@@H]12)C1C(=O)OC(=O)C13 (some centres not stated)
inhibition (COMI [1]): inactive | inhibition (COMI [2]): inactive | GI50 (COMI [3]): > 100 µM | inhibition (COMI [4]): inactive | GI50 (COMI [5]): 14.8 µM | inhibition (COMI [6]): inactive

CCN(CC)CCS(=O)(=O)[C@@H]1CCN2C(=O)c3coc(n3)C[C@@H](F)C[C@H](O)/C=C(C)/C=C/CNC(=O)/C=C/[C@@H](C)[C@@H](C(C)C)OC(=O)[C@@H]12
inhibition (COMI [1]): Active | inhibition (COMI [2]): Active | GI50 (COMI [3]): 20.5 µM | inhibition (COMI [4]): Active | GI50 (COMI [5]): 8.37 µM | inhibition (COMI [6]): Active
